Results as given in patent US20220023337A1, “USE OF CHROMIUM HISTIDINATE FOR TREATMENT OF CARDIOMETABOLIC DISORDERS” (NUTRITION 21, LLC, priority 2007, published 2022).
Read-outs that look alike come from different tables or passages of the source.

How the values were obtained:
[1] = rats, NSAID co-administered; cited from earlier work
rats = settings: cited from earlier work
[2] = cited from earlier work
Hep G2 cells [3] = assay: Triglyceride secretion into culture media by HepG2 cells; assay type: cell-based, human; settings: 0.2 μM, in the presence of insulin; p<0.05 vs control
Experimental: (§1) Hep G2 cells are liver cells derived from a human hepatoblastoma that is free of known hepatotropic viral agents. This cell line expresses a wide variety of liver-specific metabolic functions and is used as a model system to study cholesterol and triglyceride metabolism. The effects of chromium histidinate on triglyceride secretion and on media glucose levels, the HepG2 cell line was grown in culture media with or without insulin in the presence of 0, 0.2, 2, or 20 μM chromium histidinate. Media glucose levels and triglyceride levels were measured using standard protocols. Specifically, triglyceride levels were measured spectrophotometrically through hydrolysis by lipase and coupled enzyme reactions on the resulting glycerol. Glucose levels were measured spectrophotometrically using the glucose oxidase method, with a standard dilution curve serving to calibrate the measurements.

Hep G2 cells [4] = assay: Media glucose levels of HepG2 cell cultures; assay type: cell-based, human; settings: 0.2 μM, in the absence of insulin; p<0.05 vs control
Experimental: as §1

normal rats = assay: Glucose and lipid metabolism in normal rats fed standard diet (groups 1 and 2); settings: standard diet + chromium histidinate 12 weeks
Experimental: (§2) Wistar rats were reared at the temperature of (22±2° C.), humidity (55±5%) and a 12/12 h light/dark cycle. Pellet food and water were provided ad libitum.
(§3) Fat-fed/STZ treated rats provide an animal model for type 2 diabetes that simulates the human syndrome, and is suitable for the testing of antidiabetic compounds (See, e.g., Reed et al. (2000) Metabolism 49(11):1390-1394). Rats fed a high fat diet can be used as a model system for insulin resistance. Ten Wistar rats (55 days old) in each group were treated as follows:
Group 1: Control rats were fed standard diet (12% of calories as fat) for 12 weeks.
Group 2: Control rats were fed standard diet+chromium histidinate for 12 weeks.

insulin resistant rats = assay: Glucose and lipid metabolism in insulin resistant rats fed high fat diet (groups 3 and 4); assay type: in vivo, Wistar rats; settings: approx. 110 mcg/kg body.d in water, 12 weeks
Experimental: as §2, §3
Group 3: Rats were fed high fat diet (40% of calories as fat) for 12 weeks.
Group 4: Rats were fed high-fat diet (40% of calories as fat) and chromium histidinate (approx. 110 mcg/kg body.d) was included into water for 12 weeks.

diabetic rats = assay: Glucose and lipid metabolism in high fat diet/streptozotocin diabetic rats (groups 5 and 6); assay type: in vivo, Wistar rats; settings: high-fat diet + STZ 40 mg/kg i.p. rats, 110-mcg/kg body.d in water, 10 weeks
Experimental: as §2, §3
Group 5: Rats were fed high-fat diet (40% of calories as fat) for 2 weeks and then injected with streptozotocin (STZ, 40 mg/kg i.p.) for 12 weeks.
Group 6: Rats were fed high-fat diet (40% of calories as fat) for 2 weeks and then injected with streptozotocin (STZ, 40 mg/kg i.p.) and chromium histidinate was included into water at a concentration of 110-mcg/kg body.d for 10 weeks.
Before STZ injection glucose concentrations of rats were measured and compared to controls.

[5] = test system: subject having cardiometabolic syndrome; assay: Example 3: treatment of cardiometabolic syndrome; assay type: in vivo; settings: between 50 μg and 5000 μg/day, orally
Experimental: A subject is identified as having cardiometabolic syndrome. The subject presents with one or more symptoms associated with cardiometabolic syndrome such as obesity, hypertension, dyslipidemia, impaired glucose tolerance, diabetes, an increase in C-reactive protein, and increase in TNFα, an increase in IL-6, an increase in IL-10, or an increase in oxidative stress.
The individual is administered between 50 μg and 5000 μg chromium histidinate complex/day, orally. The chromium histidinate is administered orally.

[6] = test system: subject with cardiovascular disease; assay: Example 8: treatment of cardiovascular disease; assay type: in vivo; settings: about 50-5000 μg daily
Experimental: (§4) A subject is identified with cardiovascular disease. […] The subject is provided between about 50 μg and 5000 μg chromium histidinate daily. After a period of time, the subject's arteriosclerosis, atherosclerosis, peripheral vascular disease, or coronary heart disease improves.

[7] = test system: subject with cardiovascular disease; assay: Example 9: treatment of cardiovascular disease with combination therapy; assay type: in vivo; settings: about 50-5000 μg daily plus a second therapeutic for cardiovascular disease
Experimental: as §4, with “daily. The subject is also provided a therapeutically effective amount of a second therapeutic for cardiovascular disease such as peripheral antiadrenergic therapy, antihypertensive drugs, vasodilators, inodilators, cardiac glycosides, antidysrhythmic drugs.” for “daily.”

[8] = test system: subject with a PPAR associated disorder; assay: Example 13: treatment of PPAR disorders; assay type: in vivo; settings: about 50-5000 μg, orally, daily
Experimental: A subject is identified with a PPAR associated disorder. The subject has one or more of the following symptoms or conditions: rheumatoid arthritis, multiple sclerosis, inflammatory bowel disease, breast, colon, or prostate cancer, low levels of blood, lymph and/or cerebrospinal fluid apoE and/or apo A-1, elevated serum VLDL cholesterol levels, elevated serum LDL cholesterol levels, elevated triglyceride levels, elevated serum apo B levels, or the like. The subject is administered between about 50 μg and 5000 μg chromium histidinate, orally, daily. After a period of time, the subject's symptoms improve.

[9] = test system: subject having a dyslipidemia; assay: Example 14: treatment of dyslipidemia; assay type: in vivo; settings: about 50-5000 μg daily, orally; one or more of the listed changes
Experimental: A subject is identified as having a dyslipidemia. […] The subject is administered between about 50 μg and 5000 μg chromium histidinate daily, orally.

[10] = test system: subject having insulin resistance; assay: Example 5: treatment of insulin resistance; assay type: in vivo; settings: about 50-5000 μg daily, orally, in the form of a bar
Experimental: A subject is identified as having insulin resistance. […] The subject is administered between about 50 μg and 5000 μg chromium polyhistidinate daily, orally, in the form of a bar.

[11] = test system: subject with diabetes or hyperglycemia; assay: Example 11: treatment of glucose metabolism disorders; assay type: in vivo; settings: about 50-5000 μg daily, orally
Experimental: A subject is identified with one or more glucose metabolism disorders such as diabetes or hyperglycemia. The subject is orally administered between about 50 μg and 5000 μg chromium polyhistidinate daily.

subject having impotence = assay: Example 6: treatment of sexual dysfunction; assay type: in vivo; settings: about 50-5000 μg daily, orally
Experimental: A subject is identified as having impotence. The subject is orally administered between about 50 μg and 5000 μg chromium trihistidinate daily.

[12] = test system: subject with compromised renal function; assay: Example 10: treatment of renal disorders; assay type: in vivo; settings: between 50 μg and 5000 μg daily
Experimental: A subject is identified with compromised renal function. […] The subject is administered an effective amount of chromium trihistidinate daily, e.g. between 50 μg and 5000 μg chromium trihistidinate daily. After a period of time, the subject's renal function improves.

CC(=O)Oc1ccccc1C(=O)O [aspirin]
chromium absorption following oral administration of CrCl3 [1]: facilitated

[Cl][Cr]([Cl])[Cl] [chromium chloride]
toxic effects (rats; rats, levels several thousand times the upper limit of the ESADDI for chromium for humans (based on body weight)): without toxic effects

N[C@@H](Cc1c[nH]cn1)C(=O)O [histidine]
pKa [2]: ~6.0

chromium histidinate
triacylglycerol (triglycerides secreted into culture media) (Hep G2 cells [3]): significantly decreased | glucose in the media (Hep G2 cells [4]): significant decrease | free fatty acid levels (normal rats): decreases | insulin levels (normal rats): increases | insulin sensitivity (normal rats): increases | serum chromium levels (normal rats): increases | serum glucose levels (normal rats): lowers | serum triglyceride levels (normal rats): decreases | total serum cholesterol levels (normal rats): decreases | body weight (insulin resistant rats): significantly lowers | cortisol levels (insulin resistant rats): decreases | free fatty acid levels (insulin resistant rats): decreases | insulin levels (insulin resistant rats): increases | insulin sensitivity (insulin resistant rats): increases | serum glucose levels (insulin resistant rats): lowers | total serum cholesterol levels (insulin resistant rats): decreases | triglyceride levels (insulin resistant rats): decreases | body weight (diabetic rats): significantly lowers | cortisol levels (diabetic rats): decreases | free fatty acid levels (diabetic rats): decreases | insulin levels (diabetic rats): increases | insulin sensitivity (diabetic rats): increases | serum glucose levels (diabetic rats): lowers | total serum cholesterol levels (diabetic rats): decreases | triglyceride levels (diabetic rats): decreases | symptoms associated with cardiometabolic syndrome [5]: reduction in one or more of the symptoms | arteriosclerosis, atherosclerosis, peripheral vascular disease, or coronary heart disease [6]: improves | arteriosclerosis, atherosclerosis, peripheral vascular disease, or coronary heart disease [7]: improves | symptoms of PPAR associated disorder [8]: improve | serum HDL cholesterol levels [9]: increased | serum LDL cholesterol levels [9]: decreased | serum triglyceride levels [9]: decreased | total serum cholesterol levels [9]: decreased

chromium picolinate
toxic effects (rats; rat, in vivo): without toxic effects

chromium polyhistidinate
hyperinsulinemia [10]: decreased | insulin function [10]: improved | fasting and/or post-prandial glucose levels [11]: improvement

chromium trihistidinate
sexual function (subject having impotence): improved | renal function [12]: improves
